# Source: PMC9694965, “Design of 4-Substituted Sulfonamidobenzoic Acid Derivatives Targeting Coxsackievirus B3” (Life, 2022)
# Tests used:
# CVB3 Nancy [1] = assay: Thermostability assay (capsid binding, heat inactivation of virus); set-up: species or system Coxsackievirus B3; settings: pre-incubation 30 min at 37 °C, thermal gradient 37-55 °C for 2 min
# Procedure: CVB3 Nancy was pre-incubated with the compounds tested or an equal volume of MEM (virus control) for 30 min at +37 °C in sterile thin-walled 200 μL PCR-tubes (7 tubes per each treatment condition) in BioRad CFX PCR-machine. The thermal gradient of 37–55 °C for 2 min was then applied, followed by rapid cooling to 4 °C. Subsequently, the infectious virus load at each thermal condition for each compound tested was quantified by end-point dilution assay.
# [2] = Cytotoxicity assay (MTT) in Vero cells; format: cell-based; settings: African green monkey
# Procedure: (§1) Vero cells were seeded in 96-well plates in 24 h before the assay. On the assay day, the cells were washed with saline and tested compounds in appropriate concentrations (300–3 μg/mL) in MEM without FBS were added to cells. No compounds were added to virus control wells. The plates were incubated for 1 h at 37 °C at 5% CO2. The cells were then infected with CVB3 Nancy (m.o.i range of 1–0.001) and incubated for 72 h at 37 °C at 5% CO2. No virus was added to the cytotoxicity control wells. Cell viability was then assessed using an MTT test with the following procedure. The cells were washed with saline, and a solution of 3-(4,5-dimethylthiazolyl-2) 2,5-diphenyltetrazolium bromide (ICN Biochemicals Inc., Aurora, OH, USA) ([…]) in MEM was added to the wells (100 µL per well). After 2 h of incubation at 37 °C in 5% CO2, the supernatant from wells was discarded, and the formazan residue was dissolved in DMSO (100 µL per well). The optical density of cells was then measured on a Multiskan multifunctional reader (Thermo Fisher Scientific, Shanghai, China) at a wavelength of 540 nm.
# (§2) The microtetrazolium test (MTT) was used to study the cytotoxicity of the compounds. The permissive cell line Vero was seeded in 96-well plates in Eagles minimal essential medium (MEM) supplemented with 10% FBS. After 24 h, the media were removed, and the wells were washed with saline. Compounds were dissolved in DMSO, and a series of two-fold dilutions of each compound in MEM without FBS were prepared and added to the cells in triplicates. […] The MTT was then performed as described above. Next, the optical density of cells was measured on a Multiskan multifunctional reader (Thermo Fisher Scientific, Shanghai, China) at a wavelength of 540 nm and plotted against the concentration of the compounds to generate the dose–response curve. The 50% cytotoxic dose (CC50) of each compound (i.e., the compound concentration that causes the death of 50% of cells in a culture, or decreases the optical density twice, as compared to the control wells) was calculated using a four-parameter logistic nonlinear regression model (GraphPad Prism 6.01).
# Vero cells = assay: Cytotoxicity assay (MTT) in Vero cells; format: cell-based; settings: incubation with the compound only
# Procedure: as §1, §2
# CVB3 Nancy [3] = assay: Cytoprotection assay (MTT) in Vero cells infected with CVB3 Nancy; format: cell-based, Coxsackievirus B3
# Procedure: as §1
# The cytoprotective activity of compounds was considered to be their ability to increase the values of OD compared to control wells (using only a virus, without drugs). Based on the results obtained, the values of IC50, i.e., the concentration of compounds that result in 50% cells protection were calculated for m.o.i. 0.001 using GraphPad Prism 6.01 software.
# [4] = test system: Coxsackievirus B3 (Nancy); assay: Viral yield reduction assay in Vero cells; format: cell-based
# Procedure: Coxsackievirus B3 (CVB3, strain Nancy) was obtained from the collection of viruses of the Pasteur Institute (St. Petersburg, Russia). The permissive cell line Vero (ATCC #CCL-81) was used in the study. Infectious titers (in a 50%-tissue culture infection dose, TCID50) were determined in Vero cells for CVB3 by endpoint dilution assay using the following procedure. Permissive cells were seeded into 96-wells plates in Eagles minimal essential medium (MEM) supplemented with 5% fetal bovine serum (FBS). After 24 h, the medium was aspirated, the wells were washed with saline, fresh MEM without FBS was added to the wells and the cells were infected with serial tenfold dilutions of virus stocks (100 µL per well, 4 wells for each dilution). The plates were incubated at +37 °C in 5% CO2 and observed daily for cytopathic effect (CPE). After 72 h the viral titer was calculated in TCID50 using the method of Spearmen-Carber.
# The antiviral activity of the compounds was evaluated using viral yield reduction assay. The respective permissive cell line Vero was seeded in MEM supplemented with 5% FBS in 24-well plates. When the cell confluence reached 100%, the compounds tested were dissolved in DMSO, and a series of three-fold dilutions of each compound in MEM without FBS was added to the cells, and incubated at 37 °C in 5% CO2. After 1 h, the media were discarded; equal volumes of fresh serial dilutions of each compound and viral suspension in MEM without FBS at […] were added. In control wells, only MEM without FBS was added. No compounds were added in the virus control wells. The plates were incubated at 4 °C for 1 h. The unbound virus was then washed away and, again, three-fold dilutions of each compound (the final concentration 50–0.6 µg/mL) in MEM without FBS were added to the wells. After 24 h of incubation at 37 °C in 5% CO2, the infectious titer of viral progeny (in TCID50) for each compound concentration, cell control, and virus control wells were determined in permissive cell lines by endpoint dilution assay as described above.
# The titer of virus progeny was plotted against log concentration of the compounds tested to generate the dose–response curve. The 50% inhibition concentration (IC50) of each compound tested (i.e., the compound concentration that decreases the infectious viral progeny titer twice, as compared to the control wells) was calculated using a four-parameter logistic nonlinear regression model (GraphPad Prism 6.01).
compound,measurement,setting,value
"O=C(O)c1ccc(NS(=O)(=O)c2ccc(NC(=O)c3ccccc3C(=O)O)cc2)cc1 [Compound 4, 2-((4-(N-(4-Carboxyphenyl)sulfamoyl)phenyl)carbamoyl)benzoic acid]",Temperature to which infectivity of CVB3 was preserved,CVB3 Nancy [1]; concentrations greatly exceeding IC50,52.4 °C
same,Effect on heat inactivation of CVB3 (capsid stabilization),CVB3 Nancy [1]; versus virus control,heat inactivation of CVB3 changed to higher temperatures
same,CC50 at 24 h,[2]; 24 h incubation with the compound only,> 1140 µM
same,CC50 at 72 h,[2]; 72 h incubation with the compound only,> 227 µM
same,CC50,Vero cells,exceeded the maximum concentration used in the assay
same,EC50,"CVB3 Nancy [3]; Enterovirus B, Vero cells infected with CVB3 Nancy at m.o.i. 0.001, 72 h, MTT, read-out: EC50 (50% cytoprotective concentration)",13.2 ± 1.49 µM
same,"SI (selectivity index, ratio CC50/IC50)","CVB3 Nancy [3]; cytoprotection assay, CC50 72 h / EC50",>17.2
same,IC50,"[4]; Enterovirus B, B3 / CVB3, viral yield reduction, Vero cells, CVB3 Nancy at m.o.i. 0.01, 24 h, read-out: IC50 (50% virus-inhibiting concentration)",4.29 ± 1.79 µM
same,"SI (selectivity index, ratio CC50/IC50)","[4]; viral yield reduction assay, CC50 24 h / IC50",>264
same,melting point,,203 to 205 °C
